Measured values from US9562060B2, “Heterocyclic pyridone compound, and intermediate, preparation method and use thereof” (SHANGHAI HUILUN LIFE SCIENCE & TECHNOLOGY CO., LTD, priority 2011, dated 2017).

The compounds below were run against T1, c-Met kinase (Homo sapiens, UniProt P08581) (assay: Inhibitory activity of compound to c-Met kinases (Z'-LYTE kinase assay kit)). Conditions: Tyr 6 substrate peptide, read-out: Strength of activity (inhibition on c-Met kinase, IC50).
T1 construct: purchased Invitrogen PV3143
T1 sequence (P08581 25-1390): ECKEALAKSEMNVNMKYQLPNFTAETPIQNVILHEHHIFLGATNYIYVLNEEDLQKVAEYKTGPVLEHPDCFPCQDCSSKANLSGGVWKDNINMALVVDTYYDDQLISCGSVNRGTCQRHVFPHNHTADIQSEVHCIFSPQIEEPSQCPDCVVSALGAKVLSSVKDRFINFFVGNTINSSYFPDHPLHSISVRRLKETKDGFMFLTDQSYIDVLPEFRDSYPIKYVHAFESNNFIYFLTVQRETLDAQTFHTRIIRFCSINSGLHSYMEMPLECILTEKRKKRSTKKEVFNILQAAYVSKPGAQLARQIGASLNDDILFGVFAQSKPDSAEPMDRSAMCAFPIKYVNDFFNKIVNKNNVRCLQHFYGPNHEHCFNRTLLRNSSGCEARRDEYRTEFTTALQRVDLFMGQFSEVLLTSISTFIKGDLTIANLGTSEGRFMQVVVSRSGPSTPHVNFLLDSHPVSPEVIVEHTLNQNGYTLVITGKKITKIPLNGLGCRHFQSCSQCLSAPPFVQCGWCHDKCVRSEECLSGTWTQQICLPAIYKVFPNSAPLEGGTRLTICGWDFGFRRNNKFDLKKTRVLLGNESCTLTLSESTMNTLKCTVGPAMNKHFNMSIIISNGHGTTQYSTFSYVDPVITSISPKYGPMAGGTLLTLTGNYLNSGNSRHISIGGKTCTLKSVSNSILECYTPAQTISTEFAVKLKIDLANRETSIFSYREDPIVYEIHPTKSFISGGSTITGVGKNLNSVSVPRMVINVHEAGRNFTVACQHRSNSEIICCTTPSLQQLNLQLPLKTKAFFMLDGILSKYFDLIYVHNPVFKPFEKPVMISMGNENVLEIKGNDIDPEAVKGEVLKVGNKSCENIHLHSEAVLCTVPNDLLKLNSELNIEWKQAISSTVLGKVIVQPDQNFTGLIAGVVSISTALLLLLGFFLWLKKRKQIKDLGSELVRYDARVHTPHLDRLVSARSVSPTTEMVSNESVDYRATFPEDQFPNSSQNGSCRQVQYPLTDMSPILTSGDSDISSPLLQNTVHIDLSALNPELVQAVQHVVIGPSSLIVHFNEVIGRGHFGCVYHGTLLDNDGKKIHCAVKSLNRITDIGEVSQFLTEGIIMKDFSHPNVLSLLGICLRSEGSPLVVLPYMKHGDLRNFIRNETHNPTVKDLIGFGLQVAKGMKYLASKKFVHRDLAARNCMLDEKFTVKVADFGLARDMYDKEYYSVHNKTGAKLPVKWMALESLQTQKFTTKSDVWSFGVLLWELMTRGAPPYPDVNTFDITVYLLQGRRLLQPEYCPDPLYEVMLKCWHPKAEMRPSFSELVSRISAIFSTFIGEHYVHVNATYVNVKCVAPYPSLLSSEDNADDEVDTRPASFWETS
Type: biochemical
Procedure: The inhibitory activity of the compound to c-Met kinases in vitro is determined through the following method.
The method described below can be used to determine the inhibiting capacity of the compound of the present invention on the c-Met kinase activity, and the inhibiting capacity is represented by IC50. The half inhibitory concentration IC50 (a concentration of the compound for inhibiting the enzyme activity to 50%) of the compound is obtained by: mixing and reacting a certain amount of kinase with a specific substrate and different concentrations of test compound, and then labeling the substrate with an anti-phosphotyrosine antibody and a […], and finally quantitatively determining the c-Met kinase activity through a time-resolved fluorescence method.
The specific experiment is implemented by using a Z′-LYTE kinase assay kit (Invitrogen, item PV4122). First, the test compound is diluted into 8 different concentrations from 100 μM at an interval of 1:5 with an ATP solution (Invitrogen, item PV3227); 5 μL 2×c-Met (Invitrogen, item PV3143) and 2×Z′-LYTE Tyr 6 substrate peptide are respectively taken up, and added to a 384-well microtiter plate, 5 μL diluted different concentrations of test compound are added in sequence, and the lid is closed. The microtiter plate is incubated for 60 min at room temperature (20° C. to 25° C.); and then 5 μL […] is added, and the lid is closed. The microtiter plate is incubated for 60 min at room temperature (20° C. to 25° C.); and then 5 μL termination reagent is added to the reaction well, to terminate the reaction. Finally, the fluorescence intensity (OD400) of each well is determined in a fluorescence analyzer (excitation wavelength: 400 nm). The inhibition rate is calculated, and the half inhibitory concentration (IC50) of the compound is calculated according to the inhibition rates of different concentrations.
For a negative control group, except that test compound (replaced by 5 μL ATP solution) is not added, all the other reagents are added. In addition, an enzyme-free control group (that is, blank group) is set.
An IC50 of 10 to 100 nM was found for `O=C(Nc1ccc(Oc2ccnc(NC(=O)N3CCOCC3)c2)c(F)c1)c1cc2ncsc2n(-c2ccc(F)cc2)c1=O` [Embodiment 11] in this work.
An IC50 of 10 to 100 nM was found for `CN(C)CC1CCN(C(=O)Nc2cc(Oc3ccc(NC(=O)c4cc5ncsc5n(-c5ccc(F)cc5)c4=O)cc3F)ccn2)CC1` [Embodiment 13] in this work.
An IC50 of 10 to 100 nM was found for `CN(CCO)C(=O)Nc1cc(Oc2ccc(NC(=O)c3cc4ncsc4n(-c4ccc(F)cc4)c3=O)cc2F)ccn1` [Embodiment 14] in this work.
An IC50 of 10 to 100 nM was found for `CN(C)C/C=C/C(=O)Nc1cc(Oc2ccc(NC(=O)c3cc4ncsc4n(-c4ccc(F)cc4)c3=O)cc2F)ccn1` [Embodiment 15] in this work.
An IC50 of under 10 nM was found for `Nc1nccc(Oc2ccc(NC(=O)c3cc4ncsc4n(-c4ccccc4CCO)c3=O)cc2F)c1Cl` [Embodiment 19] in this work.
An IC50 of 10 to 100 nM was found for `COc1cc2c(Oc3ccc(NC(=O)c4cc5nc(N(C)C)sc5n(-c5ccc(F)cc5)c4=O)cc3F)ccnc2cc1OCCCN1CCOCC1` [Embodiment 27] in this work.
An IC50 of 100 to 1000 nM was found for `COc1ccc2c(Oc3ccc(NC(=O)c4cc5cnn(C)c5n(-c5ccc(F)cc5)c4=O)cc3F)ccnc2c1` [Embodiment 30] in this work.
An IC50 of 10 to 100 nM was found for `Cn1cnc2cc(C(=O)Nc3ccc(Oc4ccnc(N)c4Cl)c(F)c3)c(=O)n(-c3ccc(F)cc3)c21` [Embodiment 33] in this work.
An IC50 of 100 to 1000 nM was found for `Cn1cnc2cc(C(=O)Nc3ccc(Oc4ccnc(N)c4)c(F)c3)c(=O)n(-c3ccc(F)cc3)c21` [Embodiment 35] in this work.
An IC50 of 10 to 100 nM was found for `CN1CCOc2cc(C(=O)Nc3ccc(Oc4ccnc(N)c4)c(F)c3)c(=O)n(-c3ccc(F)cc3)c21` [Embodiment 39] in this work.
An IC50 of under 10 nM was found for `COc1ccc2c(Oc3ccc(NC(=O)c4cc5c(n(-c6ccc(F)cc6)c4=O)N(C)CCO5)cc3F)ccnc2c1` [Embodiment 40] in this work.
An IC50 of 100 to 1000 nM was found for `COc1cc2c(Oc3ccc(NC(=O)c4cc5c(n(-c6ccc(F)cc6)c4=O)N(C)CCO5)cc3F)ccnc2cc1OCCCN1CCOCC1` [Embodiment 42] in this work.
An IC50 of 10 to 100 nM was found for `CN1CCOc2c1cc(C(=O)Nc1ccc(Oc3ccnc(N)c3)c(F)c1)c(=O)n2-c1ccc(F)cc1` [Embodiment 43] in this work.
An IC50 of 100 to 1000 nM was found for `COc1cc2c(Oc3ccc(NC(=O)c4cc5c(n(-c6ccc(F)cc6)c4=O)OCCN5C)cc3F)ccnc2cc1OCCCN1CCOCC1` [Embodiment 45] in this work.
An IC50 of 10 to 100 nM was found for `CN1CCOc2c1cc(C(=O)Nc1ccc(Oc3ccnc(N)c3Cl)c(F)c1)c(=O)n2-c1ccc(F)cc1` [Embodiment 46] in this work.
An IC50 of under 10 nM was found for `COc1ccc2c(Oc3ccc(NC(=O)c4cc5c(n(-c6ccc(F)cc6)c4=O)OCCN5C)cc3F)ccnc2c1` [Embodiment 47] in this work.
An IC50 of 100 to 1000 nM was found for `CCOc1c(C(=O)Nc2ccc(Oc3ccnc(N)c3)c(F)c2)c(=O)n(-c2ccc(F)cc2)c2scnc12` [Embodiment 48] in this work.
An IC50 of under 10 nM was found for `CCOc1c(C(=O)Nc2ccc(Oc3ccnc(N)c3Cl)c(F)c2)c(=O)n(-c2ccc(F)cc2)c2scnc12` [Embodiment 49] in this work.
An IC50 of 10 to 100 nM was found for `CCOc1c(C(=O)Nc2ccc(Oc3ccnc4cc(OC)ccc34)c(F)c2)c(=O)n(-c2ccc(F)cc2)c2scnc12` [Embodiment 50] in this work.
An IC50 of 10 to 100 nM was found for `CN(C)c1c(C(=O)Nc2ccc(Oc3ccnc(N)c3)c(F)c2)c(=O)n(-c2ccc(F)cc2)c2scnc12` [Embodiment 52] in this work.
An IC50 of under 10 nM was found for `CN(C)c1c(C(=O)Nc2ccc(Oc3ccnc(N)c3Cl)c(F)c2)c(=O)n(-c2ccc(F)cc2)c2scnc12` [Embodiment 53] in this work.
An IC50 of 10 to 100 nM was found for `CN(C)c1c(C(=O)Nc2ccc(Oc3ccnc4[nH]ccc34)c(F)c2)c(=O)n(-c2ccc(F)cc2)c2scnc12` [Embodiment 55] in this work.
An IC50 of 100 to 1000 nM was found for `CN(CCO)c1c(C(=O)Nc2ccc(Oc3ccnc(N)c3Cl)c(F)c2)c(=O)n(-c2ccc(F)cc2)c2scnc12` [Embodiment 57] in this work.
An IC50 of 100 to 1000 nM was found for `CN(CCO)c1c(C(=O)Nc2ccc(Oc3ccnc4[nH]ccc34)c(F)c2)c(=O)n(-c2ccc(F)cc2)c2scnc12` [Embodiment 59] in this work.
